Data from patent publication US5731357A, “Immunomodulating active substance” (priority 1996, dated 1998).

Key:
[1] = tested on: delayed skin reaction (DSR) to sheep erythrocytes; assay: Delayed skin reaction (DSR); format: in vivo, mouse; settings: inosiplex 0.5, 5.0 and 50.0 mg/kg; mice of two lines; listed as In
Protocol: Experimental animals were intraperitoneally administered doses of 10.0 and 100.0 mg/kg in 0.1 ml in parallel to antigen administration; similar doses were given per os for 5 days before antigen administration.
(§1) In was dissolved in physiological solution and administered intraperitonerally at single doses together with antigen (sheep erytrcytes). Physiological solution was used as a control.
(§2) 3. DSR deermination using intravenoous immunization of mice with sheep erythrocytes administered at a dose of 2×10^5 cells. A resolution dose (1×10^8 cells in 0.04 ml of physiological solution) was injected in a hind footpad on the 5th day following immunization. Local inflammatory reaction was accounted for 24 hours later by the difference of mass between experimental (Re) and control (Rc) footpads. Reaction index (RI) was calculated for each mouse using the following formula: [formula] 4. GVHR determination. GVHR was induced by subcutaneous administration of 2×10^6 lymph node cells of […] (CBA) into right hind footpads of line F1 (CBA×C57B1/6) mice. Syngeneic lymphocytes were administered into left footpads. Cell count was determined in 5 ml of homogenate of left (control) and right (experiment) lymph nodes.

[2] = tested on: ink clearance, phagocytic activity in vivo; assay: Ink clearance (phagocytosis in vivo); design: species or system mouse; settings: In intraperitoneally 0.5, 5.0 and 50.0 mg/kg
Protocol: 5. Estimation of phagocytic activity of peritoneal macrophages in mice, using JgG-opsonized sheep erythrocytes as the phagocytosis target /10/. Macrophages were attracted by 4-percent hydrolyzed starch solution. On the 3rd or 4th day, 0.5 ml of 5-percent sheep erythrocyte suspension were administered intraperitoneally. Following 60 minutes, exudate was removed. Non phagocytic sheep erythrocytes were subjected to lysis. Cell suspension was washed out. The preparation stained per Romanovsky-Gimze was determined for phagocyting cell percentage. To determine phagocytic index (PI1), the number of sheep erythroccytes captured was calculated spectrophotometrically /11/ by hemoglobin concentration using a calibration curve. Phagocytic index (P12) was determined again following 3 hours of incubation at 37° C. Phagocytosis completion index (PCI) was calculatd using the following formula: [formula] […] Blood taking completed, animals were killed and body weight, liver and spleen weight were measured. Optical density of hemolyzed blood determined spectrophometrically at 610 nm wavelenght, and the f (D) t curve was plotted. […] Phagocytosys constant (K) was calculated using the following formula: [formula] and then true phagocytosis index (α) was calculated using the following formula: [formula] […]

[3] = tested on: antibody-forming cells in mouse spleen (sheep erythrocytes as antigen); assay: Antibody-forming cell (AFC) count in mouse spleen, local hemolysis reaction (humoral immune response); format: in vivo; settings: for AFC stimulation degree: C57B1/6; for AFC count per 10^6 nucleated spleen cells: C57B1/6 males 20-22 g; for AFC stimulating effect: 50.0 mg/kg, low responsive line mice
peritoneal macrophages = assay: Phagocytic activity of peritoneal macrophages (opsonized sheep erythrocytes); format: in vivo, mouse; settings: for Stimulation degree (phagocytosis completion index increase): F1 mice
Protocol: 5. Estimation of phagocytic activity of peritoneal macrophages in mice, using JgG-opsonized sheep erythrocytes as the phagocytosis target /10/. Macrophages were attracted by 4-percent hydrolyzed starch solution. On the 3rd or 4th day, 0.5 ml of 5-percent sheep erythrocyte suspension were administered intraperitoneally. Following 60 minutes, exudate was removed. Non phagocytic sheep erythrocytes were subjected to lysis. Cell suspension was washed out. The preparation stained per Romanovsky-Gimze was determined for phagocyting cell percentage. To determine phagocytic index (PI1), the number of sheep erythroccytes captured was calculated spectrophotometrically /11/ by hemoglobin concentration using a calibration curve. Phagocytic index (P12) was determined again following 3 hours of incubation at 37° C. Phagocytosis completion index (PCI) was calculatd using the following formula: [formula] […] Then, for 15 minutes blood was taken from orbital sinus (0.020 ml) every 3 minutes and introduced into 1 ml of 3-percent acetic acid. Blood taking completed, animals were killed and body weight, liver and spleen weight were measured. Optical density of hemolyzed blood determined spectrophometrically at 610 nm wavelenght, and the f (D) t curve was plotted. Points lg (0) (zero time) and lg(10) (on the curve) were located. Phagocytosys constant (K) was calculated using the following formula: [formula] and then true phagocytosis index (α) was calculated using the following formula: [formula] 7. Complement activity determination using the titration technique employing rabbit erythrocytes treated with hyperimmune antiserum of guinea pig /12/ for direct activation route and employing rabbit erythrocytes treated with potassium iodide solution /13/ for alternative activation route. Activity was expressed in units 50-percent lysis per ml of serum (CH50).
The effect of In given at doses of 0.5, 5.0 and 50.0 mg/kg on phagocytosis index was studied in hybrid line F1 (CBA×C57B1/6) mice, with he drug administered intraperitonreallly 30 minutes before injection of the phagocytosis target, i.e. sheep erythrocytes.

[4] = tested on: graft-versus-host reaction (GVHR); assay: Graft-versus-host reaction (GVHR); format: in vivo, mouse; settings: inosiplex 50.0 mg/kg
Protocol: as §1, §2

[5] = tested on: hemagglutinin titers for sheep erythrocytes in mouse serum; assay: Hemagglutinin (HA) titer for sheep erythrocytes in mouse serum; format: in vivo
[6] = third dose column (printed 5.0 mg/kg), 2 × 10^7 sheep erythrocytes

CC(=O)Nc1ccc(C(=O)O)cc1.CC(=O)Nc1ccc(C(=O)O)cc1.CC(=O)Nc1ccc(C(=O)O)cc1.CC(O)CN(C)C.CC(O)CN(C)C.CC(O)CN(C)C.O=c1[nH]cnc2c1ncn2[C@@H]1O[C@H](CO)[C@@H](O)[C@H]1O [Inosiplex]
DSR intensity (in words) [1]: no changes in the reaction intensity
blood clearence rate (in words) [2]: no effect on blood clearence rate
capturing intensity of inert ink particles (in words) [2]: no changes in capturing intensity of inert ink particles
AFC stimulation degree ([3]; 0.5 mg/kg, 10^8 sheep erythrocytes (optimum)): 90%
AFC count per 10^6 nucleated spleen cells ([3]; 0.5 mg/kg, 2 × 10^7 sheep erythrocytes): 52(63'44)
AFC count per 10^6 nucleated spleen cells ([3]; 0.5 mg/kg, 10^8 sheep erythrocytes, p < 0.05): 158(186'134)
AFC stimulation degree ([3]; 5.0 mg/kg, 2 × 10^7 sheep erythrocytes (suboptimum)): 38%
AFC stimulation degree ([3]; 5.0 mg/kg, 10^8 sheep erythrocytes (optimum)): 82%
AFC count per 10^6 nucleated spleen cells ([3]; 5.0 mg/kg, 2 × 10^7 sheep erythrocytes): 117(149'98)
AFC count per 10^6 nucleated spleen cells ([3]; 5.0 mg/kg, 10^8 sheep erythrocytes, p < 0.05): 151(169'134)
AFC stimulating effect ([3]; optimum immunisation): 139%
AFC stimulating effect ([3]; suboptimum immunisation): 32%
stimulation of humoral immune response ([3]; 5.0 and 50.0 mg/kg, animals low responsive to antigen): 1.3-1.8 fold
antibody-forming cells in the spleen (in words) ([3]; common to inosplex and Rp): Stimulation of forming antibody-forming cells in the spleen
humoral immune reaction (in words) ([3]; strong-replied animals, optimal dose of antigen): Suppress of humoral immune reaction
AFC stimulation degree [3, 6]: 32%
AFC stimulation degree ([3]; third dose column (printed 5.0 mg/kg), 10^8 sheep erythrocytes): 139%
AFC count per 10^6 nucleated spleen cells [3, 6]: 112(141'89)
AFC count per 10^6 nucleated spleen cells ([3]; third dose column (printed 5.0 mg/kg), 10^8 sheep erythrocytes, p < 0.01): 199(245'162)
humoral immune reaction (in words) ([3]; weak-replied animals, and strong-replied mice with suboptimum dose of antigen): Stimulation of humoral immune reaction
Stimulation degree (phagocytosis completion index increase) (peritoneal macrophages; 5.0 mg/kg, intraperitoneal): 39%
Stimulation degree (phagocytosis completion index increase) (peritoneal macrophages; 50.0 mg/kg, intraperitoneal): 76%
phagocytosis and digesting ability of macrophages (in words) (peritoneal macrophages; common to inosplex and Rp): Stimulation of phagocytosis and digesting ability of macrophages
phagocytosis index (in words) (peritoneal macrophages; inosiplex 0.5 mg/kg, F1, intraperitoneal): no stimulation effect
stimulation of phagocytosis completion (peritoneal macrophages; intraperitoneal 5.0 and 50.0 mg/kg): 1.4-1.7 times
GVHR (in words) [4]: slight inhibitory effect
HA titer, 14th day after immunisation ([5]; 250.0 mg/kg, CBA males 20-22 g, n = 8, suboptimum sheep erythrocyte dose, P< 0.02): 8.5 log2
stimulation of hemagglutinin production (fold) ([5]; 250.0 mg/kg, line CBA): as much as two times
stimulation of hemagglutinin production (log2 of hemagglutinin titer) ([5]; 250.0 mg/kg, line CBA): 1 log2 of hemagglutinin titer
effect on hemagglutinin titer (in words) ([5]; 0.5, 5.0 and 25.0 mg/kg, line CBA, 7th and 14th day, suboptimum immunisation): no stimulating effect
